Data published in PubChem BioAssay (NCI).
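Briefly, cells in 96-well plates were exposed to five compound concentrations for 48 h, and endpoints were estimated by linear interpolation. GI50 = concentration required for 50% inhibition of growth. At the TGI there is no net growth.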

Columns and labels:
Test in all cases: growth of human tumour cells (NCI), 48 h
COLO 205 colon = tested on: COLO 205 colon
LOX IMVI melanoma = tested on: LOX IMVI melanoma
IGROV1 ovarian = tested on: IGROV1 ovarian
OVCAR-5 ovarian = tested on: OVCAR-5 ovarian
KM12 colon = tested on: KM12 colon
NCI-H522 lung = tested on: NCI-H522 lung
OVCAR-4 ovarian = tested on: OVCAR-4 ovarian
NCI/ADR-RES ovarian = tested on: NCI/ADR-RES ovarian
UACC-62 melanoma = tested on: UACC-62 melanoma
UACC-257 melanoma = tested on: UACC-257 melanoma
786-0 renal = tested on: 786-0 renal
ACHN renal = tested on: ACHN renal
MDA-MB-231 breast = tested on: MDA-MB-231 breast
SK-MEL-28 melanoma = tested on: SK-MEL-28 melanoma
SK-MEL-2 melanoma = tested on: SK-MEL-2 melanoma
SNB-19 CNS = tested on: SNB-19 CNS
OVCAR-3 ovarian = tested on: OVCAR-3 ovarian
BT-549 breast = tested on: BT-549 breast
UO-31 renal = tested on: UO-31 renal
SF-268 CNS = tested on: SF-268 CNS
MCF7 breast = tested on: MCF7 breast
M14 melanoma = tested on: M14 melanoma
MDA-MB-435 = tested on: MDA-MB-435
SR leukemia = tested on: SR leukemia
HT29 colon = tested on: HT29 colon
SK-MEL-5 melanoma = tested on: SK-MEL-5 melanoma
MOLT-4 leukemia = tested on: MOLT-4 leukemia
DU-145 prostate = tested on: DU-145 prostate
SF-539 CNS = tested on: SF-539 CNS
SNB-75 CNS = tested on: SNB-75 CNS
SF-295 CNS = tested on: SF-295 CNS
HCT-116 colon = tested on: HCT-116 colon
A498 renal = tested on: A498 renal
NCI-H226 lung = tested on: NCI-H226 lung
SK-OV-3 ovarian = tested on: SK-OV-3 ovarian
HL-60(TB) leukemia = tested on: HL-60(TB) leukemia
SN12C renal = tested on: SN12C renal
HCT-15 colon = tested on: HCT-15 colon
HS 578T breast = tested on: HS 578T breast
CAKI-1 renal = tested on: CAKI-1 renal
NCI-H460 lung = tested on: NCI-H460 lung
HOP-62 NSCLC = tested on: HOP-62 NSCLC
SW-620 colon = tested on: SW-620 colon
A549 NSCLC = tested on: A549 NSCLC
PC-3 prostate = tested on: PC-3 prostate
CCRF-CEM leukemia = tested on: CCRF-CEM leukemia
RXF 393 renal = tested on: RXF 393 renal
U251 CNS = tested on: U251 CNS
RPMI-8226 leukemia = tested on: RPMI-8226 leukemia
K-562 leukemia = tested on: K-562 leukemia
OVCAR-8 ovarian = tested on: OVCAR-8 ovarian
HCC-2998 colon = tested on: HCC-2998 colon

Question: Which results are given for O=C1C=C(Nc2ccc([N+](=O)[O-])cc2)c2ccccc2C1=O?
Answer: GI50 (COLO 205 colon): 17.4 µM; TGI (COLO 205 colon): 34.8 µM; GI50 (LOX IMVI melanoma): 2.34 µM; TGI (LOX IMVI melanoma): 7.47 µM; GI50 (IGROV1 ovarian): 5.99 µM; TGI (IGROV1 ovarian): 20.8 µM; GI50 (OVCAR-5 ovarian): 13.3 µM; TGI (OVCAR-5 ovarian): 27.5 µM; GI50 (KM12 colon): 3.3 µM; TGI (KM12 colon): 16.4 µM; GI50 (NCI-H522 lung): 2.91 µM; TGI (NCI-H522 lung): 14.4 µM; GI50 (OVCAR-4 ovarian): 2.07 µM; TGI (OVCAR-4 ovarian): 11.2 µM; GI50 (NCI/ADR-RES ovarian): 2.93 µM; TGI (NCI/ADR-RES ovarian): 29.3 µM; GI50 (UACC-62 melanoma): 1.9 µM; TGI (UACC-62 melanoma): 5.88 µM; GI50 (UACC-257 melanoma): 3.14 µM; TGI (UACC-257 melanoma): 13.8 µM; GI50 (786-0 renal): 11.6 µM; TGI (786-0 renal): 33.8 µM; GI50 (ACHN renal): 4.3 µM; TGI (ACHN renal): 17.7 µM; GI50 (MDA-MB-231 breast): 1.72 µM; TGI (MDA-MB-231 breast): 13.2 µM; GI50 (SK-MEL-28 melanoma): 3.75 µM; TGI (SK-MEL-28 melanoma): 16.6 µM; GI50 (SK-MEL-2 melanoma): 2.12 µM; TGI (SK-MEL-2 melanoma): 8.47 µM; GI50 (SNB-19 CNS): 4.71 µM; TGI (SNB-19 CNS): 18.1 µM; GI50 (OVCAR-3 ovarian): 2.07 µM; TGI (OVCAR-3 ovarian): 7.03 µM; GI50 (BT-549 breast): 3.56 µM; TGI (BT-549 breast): 14.5 µM; GI50 (UO-31 renal): 1.85 µM; TGI (UO-31 renal): 12.5 µM; GI50 (SF-268 CNS): 5.39 µM; TGI (SF-268 CNS): 20.6 µM; GI50 (MCF7 breast): 2.49 µM; TGI (MCF7 breast): 13.9 µM; GI50 (M14 melanoma): 3.49 µM; TGI (M14 melanoma): 16.7 µM; GI50 (MDA-MB-435): 0.392 µM; TGI (MDA-MB-435): 1.41 µM; GI50 (SR leukemia): 2.55 µM; TGI (SR leukemia): > 100 µM; GI50 (HT29 colon): 18.6 µM; TGI (HT29 colon): 42.3 µM; GI50 (SK-MEL-5 melanoma): 1.56 µM; TGI (SK-MEL-5 melanoma): 3.47 µM; GI50 (MOLT-4 leukemia): 3.55 µM; TGI (MOLT-4 leukemia): 12.7 µM; GI50 (DU-145 prostate): 6.94 µM; TGI (DU-145 prostate): 19.6 µM; GI50 (SF-539 CNS): 3.5 µM; TGI (SF-539 CNS): 14.7 µM; GI50 (SNB-75 CNS): 1.19 µM; TGI (SNB-75 CNS): 9.91 µM; GI50 (SF-295 CNS): 4.93 µM; TGI (SF-295 CNS): 18 µM; GI50 (HCT-116 colon): 2.79 µM; TGI (HCT-116 colon): 12.4 µM; GI50 (A498 renal): 1.47 µM; TGI (A498 renal): 6.75 µM; GI50 (NCI-H226 lung): 12.6 µM; TGI (NCI-H226 lung): 28.1 µM; GI50 (SK-OV-3 ovarian): 11.6 µM; TGI (SK-OV-3 ovarian): 27.1 µM; GI50 (HL-60(TB) leukemia): 2.67 µM; TGI (HL-60(TB) leukemia): 7.19 µM; GI50 (SN12C renal): 3.92 µM; TGI (SN12C renal): 15.1 µM; GI50 (HCT-15 colon): 2.42 µM; TGI (HCT-15 colon): 15.4 µM; GI50 (HS 578T breast): 1.78 µM; TGI (HS 578T breast): 9.96 µM; GI50 (CAKI-1 renal): 3.87 µM; TGI (CAKI-1 renal): 19 µM; GI50 (NCI-H460 lung): 4.45 µM; TGI (NCI-H460 lung): 17.2 µM; GI50 (HOP-62 NSCLC): 5.69 µM; TGI (HOP-62 NSCLC): 19.6 µM; GI50 (SW-620 colon): 2.47 µM; TGI (SW-620 colon): 15.5 µM; GI50 (A549 NSCLC): 3.96 µM; TGI (A549 NSCLC): 16.5 µM; GI50 (PC-3 prostate): 3.7 µM; TGI (PC-3 prostate): 47.1 µM; GI50 (CCRF-CEM leukemia): 3.9 µM; TGI (CCRF-CEM leukemia): 26 µM; GI50 (RXF 393 renal): 6.6 µM; TGI (RXF 393 renal): 22.5 µM; GI50 (U251 CNS): 3.07 µM; TGI (U251 CNS): 12.9 µM; GI50 (RPMI-8226 leukemia): 3.37 µM; TGI (RPMI-8226 leukemia): 22.4 µM; GI50 (K-562 leukemia): 0.569 µM; TGI (K-562 leukemia): 15.3 µM; GI50 (OVCAR-8 ovarian): 2.74 µM; TGI (OVCAR-8 ovarian): 12.6 µM; GI50 (HCC-2998 colon): 9.09 µM; TGI (HCC-2998 colon): 22.4 µM
